Assay results as given in the kinase profiling compilation of Christmann-Franck et al. (2016).

Assays:
Test in all cases: KINOMEscan competition binding
Settings in all cases: compound 10.0 µM
ULK2 (human) = ULK2 (human) (UniProt Q8IYT8)
MAPKAPK5 (human) = MAPKAPK5 (human) (UniProt Q8IW41)
MYLK2 (human) = MYLK2 (human) (UniProt Q9H1R3)
MAP3K3 (human) = MAP3K3 (human) (UniProt Q99759)
CLK1 (human) = CLK1 (human) (UniProt P49759)
CDK2 (human) = CDK2 (human) (UniProt P24941)
STK10 (human) = STK10 (human) (UniProt O94804)
RPS6KA5 KD2 (human) = RPS6KA5 KD2 (human) (UniProt O75582)
SIK1 (human) = SIK1 (human) (UniProt P57059)
NUAK1 (human) = NUAK1 (human) (UniProt O60285)
CDK3 (human) = CDK3 (human) (UniProt Q00526)
EPHA5 (human) = EPHA5 (human) (UniProt P54756)
[1] = test system: ABL1 (human), P00519 [F317L]
ACVRL1 (human) = ACVRL1 (human) (UniProt P37023)
PIK3CA (human) = PIK3CA (human) (UniProt P42336)
ZAP70 (human) = ZAP70 (human) (UniProt P43403)
SIK2 (human) = SIK2 (human) (UniProt Q9H0K1)
ABL1 (human) = ABL1 (human) (UniProt P00519)
RIPK2 (human) = RIPK2 (human) (UniProt O43353)
NEK2 (human) = NEK2 (human) (UniProt P51955)
MAP3K11 (human) = MAP3K11 (human) (UniProt Q16584)
TLK2 (human) = TLK2 (human) (UniProt Q86UE8)
MAP3K10 (human) = MAP3K10 (human) (UniProt Q02779)
RET (human) = RET (human) (UniProt P07949)
CDK5 (human) = CDK5 (human) (UniProt Q00535)
AURKC (human) = AURKC (human) (UniProt Q9UQB9)
WEE1 (human) = WEE1 (human) (UniProt P30291)
CAMK4 (human) = CAMK4 (human) (UniProt Q16566)
LRRK2 (human) = LRRK2 (human) (UniProt Q5S007)
SBK1 (human) = SBK1 (human) (UniProt Q52WX2)
CDK4 CCND1 (human) = CDK4 CCND1 (human) (UniProt P11802+P24385)
MTOR (human) = MTOR (human) (UniProt P42345)
[2] = test system: PIK3CA (human), P42336 [H1047L]
CRK2 (P.falciparum) = CRK2 (P.falciparum) (UniProt P61075)
CSNK1A1 (human) = CSNK1A1 (human) (UniProt P48729)
[3] = test system: PIK3CA (human), P42336 [E542K]
PIP5K1C (human) = PIP5K1C (human) (UniProt O60331)
BRAF (human) = BRAF (human) (UniProt P15056)
YSK4 (human) = YSK4 (human) (UniProt Q56UN5)

Chain of NUAK1 (human) (O60285 whole entry, looked up): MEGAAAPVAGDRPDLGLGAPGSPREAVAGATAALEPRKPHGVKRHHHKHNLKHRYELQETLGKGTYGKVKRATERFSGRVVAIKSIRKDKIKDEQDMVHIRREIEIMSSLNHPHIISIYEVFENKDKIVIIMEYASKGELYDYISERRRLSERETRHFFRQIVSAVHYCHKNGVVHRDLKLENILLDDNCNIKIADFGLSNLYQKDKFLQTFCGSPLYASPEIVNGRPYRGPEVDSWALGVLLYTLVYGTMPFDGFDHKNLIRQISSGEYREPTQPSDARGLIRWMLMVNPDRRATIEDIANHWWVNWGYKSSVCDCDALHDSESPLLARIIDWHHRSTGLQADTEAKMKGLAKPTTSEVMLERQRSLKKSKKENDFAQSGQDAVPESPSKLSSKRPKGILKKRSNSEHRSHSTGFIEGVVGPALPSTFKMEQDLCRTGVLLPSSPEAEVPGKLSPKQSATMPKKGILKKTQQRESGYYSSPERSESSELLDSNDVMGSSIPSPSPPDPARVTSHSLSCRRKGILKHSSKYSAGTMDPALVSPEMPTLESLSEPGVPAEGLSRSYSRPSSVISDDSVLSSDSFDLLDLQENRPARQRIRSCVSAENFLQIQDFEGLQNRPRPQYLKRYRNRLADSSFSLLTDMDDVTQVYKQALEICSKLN
Chain of CDK5 (human) (Q00535 whole entry, looked up): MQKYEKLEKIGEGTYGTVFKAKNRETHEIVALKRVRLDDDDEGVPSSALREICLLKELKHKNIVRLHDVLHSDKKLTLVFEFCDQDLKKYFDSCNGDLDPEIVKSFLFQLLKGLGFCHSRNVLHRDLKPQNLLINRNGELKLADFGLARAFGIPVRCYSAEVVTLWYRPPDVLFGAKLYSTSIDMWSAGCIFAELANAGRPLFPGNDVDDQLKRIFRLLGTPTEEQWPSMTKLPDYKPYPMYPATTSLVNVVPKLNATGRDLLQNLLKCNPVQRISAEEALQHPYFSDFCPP
Chain of MAP3K10 (human) (Q02779 whole entry, looked up): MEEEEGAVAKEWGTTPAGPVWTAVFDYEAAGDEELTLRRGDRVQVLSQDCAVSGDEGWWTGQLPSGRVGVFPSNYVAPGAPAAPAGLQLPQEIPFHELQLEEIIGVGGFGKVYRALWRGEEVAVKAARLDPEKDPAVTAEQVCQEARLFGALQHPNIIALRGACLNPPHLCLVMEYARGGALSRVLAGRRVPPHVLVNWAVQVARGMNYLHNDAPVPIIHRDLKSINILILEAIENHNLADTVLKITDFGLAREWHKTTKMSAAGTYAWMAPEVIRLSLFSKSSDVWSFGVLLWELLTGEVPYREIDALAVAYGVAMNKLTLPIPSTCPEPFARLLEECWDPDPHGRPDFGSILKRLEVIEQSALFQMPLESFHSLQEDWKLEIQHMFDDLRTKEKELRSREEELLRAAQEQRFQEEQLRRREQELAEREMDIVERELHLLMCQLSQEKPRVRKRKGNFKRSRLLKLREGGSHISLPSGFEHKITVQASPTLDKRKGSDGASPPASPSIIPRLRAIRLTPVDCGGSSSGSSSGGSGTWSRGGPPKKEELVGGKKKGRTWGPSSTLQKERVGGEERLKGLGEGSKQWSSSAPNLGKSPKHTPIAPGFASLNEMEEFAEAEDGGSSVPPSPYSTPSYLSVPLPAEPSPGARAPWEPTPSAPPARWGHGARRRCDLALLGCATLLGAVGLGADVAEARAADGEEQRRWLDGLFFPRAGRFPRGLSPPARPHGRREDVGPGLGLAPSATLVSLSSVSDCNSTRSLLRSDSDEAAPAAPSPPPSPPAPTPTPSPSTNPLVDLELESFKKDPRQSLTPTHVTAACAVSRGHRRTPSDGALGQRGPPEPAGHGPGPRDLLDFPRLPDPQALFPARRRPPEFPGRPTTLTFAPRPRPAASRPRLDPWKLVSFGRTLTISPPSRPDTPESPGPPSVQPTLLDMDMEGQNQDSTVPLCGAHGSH
Chain of RIPK2 (human) (O43353 whole entry, looked up): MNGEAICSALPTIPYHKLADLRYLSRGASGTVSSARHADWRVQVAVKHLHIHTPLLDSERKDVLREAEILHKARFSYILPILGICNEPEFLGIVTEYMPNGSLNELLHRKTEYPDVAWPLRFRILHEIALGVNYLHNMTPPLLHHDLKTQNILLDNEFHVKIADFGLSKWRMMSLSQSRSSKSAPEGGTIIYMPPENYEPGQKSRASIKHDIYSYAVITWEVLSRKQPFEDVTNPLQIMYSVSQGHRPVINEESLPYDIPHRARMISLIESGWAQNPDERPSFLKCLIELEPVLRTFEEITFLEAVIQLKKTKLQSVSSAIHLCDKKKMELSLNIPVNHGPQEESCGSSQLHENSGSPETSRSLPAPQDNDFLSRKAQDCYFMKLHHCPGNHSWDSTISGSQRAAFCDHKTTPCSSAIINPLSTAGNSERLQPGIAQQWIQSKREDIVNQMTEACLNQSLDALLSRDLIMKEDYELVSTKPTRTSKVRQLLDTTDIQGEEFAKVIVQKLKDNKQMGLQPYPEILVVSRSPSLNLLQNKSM
Chain of MYLK2 (human) (Q9H1R3 whole entry, looked up): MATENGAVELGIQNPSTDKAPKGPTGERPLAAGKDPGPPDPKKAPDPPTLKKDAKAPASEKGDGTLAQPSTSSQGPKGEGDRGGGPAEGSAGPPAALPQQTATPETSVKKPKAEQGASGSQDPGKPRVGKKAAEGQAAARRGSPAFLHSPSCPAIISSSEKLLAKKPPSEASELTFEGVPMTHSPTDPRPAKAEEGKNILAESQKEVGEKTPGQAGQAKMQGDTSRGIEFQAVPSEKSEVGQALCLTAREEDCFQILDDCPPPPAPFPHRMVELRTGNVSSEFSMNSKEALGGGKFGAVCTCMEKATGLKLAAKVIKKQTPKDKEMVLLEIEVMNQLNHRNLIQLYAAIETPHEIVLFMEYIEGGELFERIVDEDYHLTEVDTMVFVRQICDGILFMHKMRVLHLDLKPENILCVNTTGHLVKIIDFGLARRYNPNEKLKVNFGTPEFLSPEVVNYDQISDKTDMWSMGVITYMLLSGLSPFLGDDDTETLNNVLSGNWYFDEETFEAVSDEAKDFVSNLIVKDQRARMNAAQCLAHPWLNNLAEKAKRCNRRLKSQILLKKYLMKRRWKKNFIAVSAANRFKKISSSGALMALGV
Chain of TLK2 (human) (Q86UE8 whole entry, looked up): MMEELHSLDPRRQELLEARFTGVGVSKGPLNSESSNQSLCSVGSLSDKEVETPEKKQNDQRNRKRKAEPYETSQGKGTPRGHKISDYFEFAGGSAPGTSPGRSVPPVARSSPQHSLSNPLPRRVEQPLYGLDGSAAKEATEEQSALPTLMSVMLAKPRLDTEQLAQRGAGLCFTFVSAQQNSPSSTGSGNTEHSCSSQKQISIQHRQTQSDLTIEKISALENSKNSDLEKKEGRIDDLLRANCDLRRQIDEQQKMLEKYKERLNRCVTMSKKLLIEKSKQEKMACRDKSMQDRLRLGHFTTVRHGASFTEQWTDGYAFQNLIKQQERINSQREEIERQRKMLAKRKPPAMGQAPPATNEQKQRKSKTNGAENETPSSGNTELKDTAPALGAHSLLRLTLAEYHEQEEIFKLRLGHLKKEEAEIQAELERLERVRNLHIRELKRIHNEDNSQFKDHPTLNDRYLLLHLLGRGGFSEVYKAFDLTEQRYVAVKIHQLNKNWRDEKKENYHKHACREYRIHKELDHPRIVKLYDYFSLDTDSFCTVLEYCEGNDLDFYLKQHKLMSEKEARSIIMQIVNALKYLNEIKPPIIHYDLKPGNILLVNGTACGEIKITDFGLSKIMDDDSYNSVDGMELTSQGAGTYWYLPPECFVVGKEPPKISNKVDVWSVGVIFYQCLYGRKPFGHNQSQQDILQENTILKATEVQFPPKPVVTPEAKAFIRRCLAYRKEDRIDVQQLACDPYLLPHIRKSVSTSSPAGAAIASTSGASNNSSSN
Chain of STK10 (human) (O94804 whole entry, looked up): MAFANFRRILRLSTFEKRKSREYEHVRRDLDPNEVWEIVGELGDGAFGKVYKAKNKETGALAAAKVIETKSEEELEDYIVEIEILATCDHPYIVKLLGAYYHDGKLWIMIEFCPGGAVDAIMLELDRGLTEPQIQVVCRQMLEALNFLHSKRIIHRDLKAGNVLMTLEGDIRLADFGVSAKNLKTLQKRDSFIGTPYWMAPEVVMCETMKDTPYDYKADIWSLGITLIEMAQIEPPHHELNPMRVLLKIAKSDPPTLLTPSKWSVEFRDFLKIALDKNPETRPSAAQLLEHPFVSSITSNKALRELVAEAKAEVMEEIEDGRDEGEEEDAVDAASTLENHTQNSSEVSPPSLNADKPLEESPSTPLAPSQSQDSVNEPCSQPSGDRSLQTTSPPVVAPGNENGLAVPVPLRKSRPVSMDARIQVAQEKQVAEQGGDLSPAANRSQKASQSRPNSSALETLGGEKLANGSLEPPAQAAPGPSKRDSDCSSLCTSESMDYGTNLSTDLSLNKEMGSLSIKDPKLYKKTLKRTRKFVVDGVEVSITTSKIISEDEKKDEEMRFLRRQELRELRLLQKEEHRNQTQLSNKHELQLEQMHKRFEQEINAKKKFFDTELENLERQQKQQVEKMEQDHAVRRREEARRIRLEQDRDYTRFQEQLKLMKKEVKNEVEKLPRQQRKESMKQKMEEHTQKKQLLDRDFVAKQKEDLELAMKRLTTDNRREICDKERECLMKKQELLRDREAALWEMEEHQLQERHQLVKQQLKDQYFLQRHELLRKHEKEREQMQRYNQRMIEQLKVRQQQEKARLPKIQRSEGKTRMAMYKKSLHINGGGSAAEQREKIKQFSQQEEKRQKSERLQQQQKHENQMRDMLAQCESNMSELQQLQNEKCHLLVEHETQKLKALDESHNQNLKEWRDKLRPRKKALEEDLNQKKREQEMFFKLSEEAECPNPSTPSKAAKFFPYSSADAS

Structure (SMILES)	kinase still bound, per cent of control (MAPKAPK5 (human))	kinase still bound, per cent of control (MYLK2 (human))	kinase still bound, per cent of control (CLK1 (human))	kinase still bound, per cent of control (CDK2 (human))	kinase still bound, per cent of control (STK10 (human))	kinase still bound, per cent of control (RPS6KA5 KD2 (human))	kinase still bound, per cent of control (SIK1 (human))	kinase still bound, per cent of control (NUAK1 (human))	kinase still bound, per cent of control (CDK3 (human))	kinase still bound, per cent of control (EPHA5 (human))	kinase still bound, per cent of control (ACVRL1 (human))	kinase still bound, per cent of control (PIK3CA (human))	kinase still bound, per cent of control (ZAP70 (human))	kinase still bound, per cent of control (SIK2 (human))	kinase still bound, per cent of control (RIPK2 (human))	kinase still bound, per cent of control (NEK2 (human))	kinase still bound, per cent of control (MAP3K11 (human))	kinase still bound, per cent of control (TLK2 (human))	kinase still bound, per cent of control (MAP3K10 (human))	kinase still bound, per cent of control (RET (human))	other results
COc1cc(C)c(Sc2cnc(NC(=O)c3ccc(CNC(C)C(C)C)cc3)s2)cc1C(=O)N1CCN(C(C)=O)CC1 (stereo not given)	100%	100%	4.9%	100%	13%	100%	100%	100%	100%	100%	100%	100%	100%	100%	100%	18%	100%	100%	100%	100%	kinase still bound, per cent of control (ULK2 (human)): 24%; kinase still bound, per cent of control (MAP3K3 (human)): 100%; kinase still bound, per cent of control [1]: 100%; kinase still bound, per cent of control (ABL1 (human)): 100%; kinase still bound, per cent of control (CDK5 (human)): 100%; kinase still bound, per cent of control (AURKC (human)): 100%; kinase still bound, per cent of control (WEE1 (human)): 100%; kinase still bound, per cent of control (CAMK4 (human)): 100%
N#C/C(=C1/Nc2ccccc2S1)c1ccnc(NCCc2cccnc2)n1	100%	100%	69%	90%	100%	72%	100%	100%	100%	99%	100%	100%	100%	82%	81%	96%	93%	75%	85%	100%	kinase still bound, per cent of control (ULK2 (human)): 83%; kinase still bound, per cent of control (LRRK2 (human)): 100%; kinase still bound, per cent of control (MAP3K3 (human)): 74%; kinase still bound, per cent of control (SBK1 (human)): 94%; kinase still bound, per cent of control (CDK4 CCND1 (human)): 32%; kinase still bound, per cent of control (MTOR (human)): 34%; kinase still bound, per cent of control [2]: 85%; kinase still bound, per cent of control (CRK2 (P.falciparum)): 100%; kinase still bound, per cent of control (CSNK1A1 (human)): 9.8%; kinase still bound, per cent of control [3]: 100%; kinase still bound, per cent of control (CDK5 (human)): 100%; kinase still bound, per cent of control (AURKC (human)): 67%; kinase still bound, per cent of control (WEE1 (human)): 100%; kinase still bound, per cent of control (CAMK4 (human)): 100%; kinase still bound, per cent of control (PIP5K1C (human)): 8.2%; kinase still bound, per cent of control (BRAF (human)): 14%; kinase still bound, per cent of control (YSK4 (human)): 3.2%
COc1ccc(N(C(=O)Oc2cc(C(=O)Nc3cccc(C(F)(F)F)c3)ccc2C)c2ccnc(Nc3ccc(N4CCN(C)CC4)cc3)n2)c(OC)c1	100%	100%	100%	100%	0%	100%	0.1%	100%	100%	0.85%	100%	100%	100%	1.9%	2.3%	100%	100%	100%	100%	0.35%	kinase still bound, per cent of control (ABL1 (human)): 2%; kinase still bound, per cent of control (CDK5 (human)): 100%; kinase still bound, per cent of control (AURKC (human)): 100%; kinase still bound, per cent of control (WEE1 (human)): 100%; kinase still bound, per cent of control (CAMK4 (human)): 100%
